Reference: US5753648A, “Tricyclic benzazepine vasopressin antagonists” (American Cyanamid Company, priority 1996, dated 1998)
Structures can show the parent of a compound that is named as a salt.

Legend:
[1] = molecular target: Rat Hepatic V1 Receptors (Rattus norvegicus, UniProt P30560); assay: Binding Assay to Rat Hepatic V1 Receptors
Experimental: Binding Assay to Rat Hepatic V1 Receptors
Rat liver plasma membranes expressing the vasopressin V1 receptor subtypes are isolated by sucrose density gradient according to the method described by Lesko et al, (1973). These membranes are quickly suspended in 50.0 mM Tris.HCl buffer, pH 7.4, containing 0.2% bovine serum albumin (BSA) and 0.1 mM phenylmethylsulfonylfluoride (PMSF) and kept frozen at -70° C. until used in subsequent binding experiments. For binding experiments, the following is added to the wells of a ninety-six well format microtiter plate: 100 μl of 100.0 mM Tris.HCl buffer containing 10.0 mM MgCl2, 0.2% heat inactivated BSA and a mixture of protease inhibitors: leupeptin, 1.0 mg %; aprotinin, 1.0 mg %; 1,10-phenanthroline,2.0 mg %; trypsin inhibitor, 10.0 mg % and 0.1 mM PMSF, 20.0 μl of [phenylalanyl-3,4,5,-^3 H] vaso-pressin (S.A. 45.1 Ci/mmole) at 0.8 nM, and the reaction initiated by the addition of 80 μl of tissue membranes containing 20 μg of tissue protein. The plates are kept undisturbed on the bench top at room temperature for 120 min. to reach equilibrium. Non-specific samples are assayed in the presence of 0.1 μm of the unlabeled antagonist phenylalanylvasopressin, added in 20.0 μl volume. For test compounds, these are solubilized in 50% dimethylsulfoxide (DMSO) and added in 20.0 μl volume to a final incubation volume of 200 μl. Upon completion of binding, the content of each well is filtered off, using a Brandel® cell Harvester (Gaithersburg, Md.). The radioactivity trapped on the filter disk by the ligand-receptor complex is assessed by liquid scintillation counting in a Packard LS Counter, with an efficiency of 65% for tritium. The data are analyzed for IC50 values by the LUNDON-2 program for competition (LUNDON SOFTWARE, Ohio).

[2] = molecular target: T1, Rat Kidney Medullary V2 Receptors (Rattus norvegicus, UniProt Q00788); assay: biochemical; assay type: binding
T1 construct: Medullary tissues from rat kidneys are dissected out; from tissue; host or cells: rat kidney medulla membranes
Experimental: Binding Assay to Rat Kidney Medullary V2 Receptors
Medullary tissues from rat kidneys are dissected out, cut into small pieces and soaked in a […] sodium chloride solution containing 1.0 mM EDTA with many changes of the liquid phase, until the solution is clear of blood. The tissue is homogenized in a 0.25M sucrose solution containing 1.0 mM EDTA and 0.1 mM PMSF using a Potter-Elvehjem homogenizer with a teflon pestle. The homogenate is filtered through several layers (4 layers) of cheese cloth. The filtrate is rehomogenized using a dounce homogenizer, with a tight fitting pestle. The final homogenate is centrifuged at 1500×g for 15 min. The nuclear pellet is discarded and the supernatant fluid recentrifuged at 40,000×g for 30 min. The resulting pellet formed contains a dark inner part with the exterior, slightly pink. The pink outer part is suspended in a small amount of 50.0 mM Tris.HCl buffer, pH 7.4. The protein content is determined by the Lowry's method (Lowry et al, J. Biol. Chem., 1953). The membrane suspension is stored at -70° C., in 50.0 mM Tris.HCl, containing 0.2% inactivated BSA and 0.1 mM PMSF in aliquots of 1.0 ml containing 10.0 mg protein per ml of suspension until use in subsequent binding experiments.
For binding experiments, the following is added in μl volume to wells of a 96 well format of a microtiter plate: 100.0 μl of 100.0 mM Tris.HCl buffer containing 0.2% heat inactivated BSA, 10.0 mM MgCl2 and a mixture of protease inhibitors: leupeptin, 1.0 mg %; aprotinin, 1.0 mg %; 1,10-phenanthroline, 2.0 mg %; trypsin inhibitor, 10.0 mg % and 0.1 mM PMSF, 20.0 μl of [^3 H] Arginine^8, vasopressin (S.A. 75.0 Ci/mmole) at 0.8 nM and the reaction initiated by the addition of 80.0 μl of tissue membranes (200.0 μg tissue protein). The plates are left undisturbed on the bench top for 120 min. to reach equilibrium. Non-specific binding is assessed in the presence of 1.0 μM of unlabeled ligand, added in 20 μl volume. For test compounds, these are solubilized in 50% dimethylsulfoxide (DMSO) and added in 20.0 μl volume to a final incubation volume of 200 μl. Upon completion of binding, the content of each well is filtered off, using a Brandel® cell Harvester (Gaithersburg, Md.). The radioactivity trapped on the filter disk by the ligand-receptor complex is assessed by liquid scintillation counting in a Packard LS Counter, with an efficiency of 65% for tritium. The data are analyzed for IC50 values by the LUNDON-2 program for competition (LUNDON SOFTWARE, Ohio).

[3] = molecular target: T2, oxytocin receptors (Rattus norvegicus, UniProt P70536); assay: Oxytocin Receptor Binding; conditions: for IC50: rat uterine membranes, [3H]oxytocin
T2 sequence (P70536 1-388): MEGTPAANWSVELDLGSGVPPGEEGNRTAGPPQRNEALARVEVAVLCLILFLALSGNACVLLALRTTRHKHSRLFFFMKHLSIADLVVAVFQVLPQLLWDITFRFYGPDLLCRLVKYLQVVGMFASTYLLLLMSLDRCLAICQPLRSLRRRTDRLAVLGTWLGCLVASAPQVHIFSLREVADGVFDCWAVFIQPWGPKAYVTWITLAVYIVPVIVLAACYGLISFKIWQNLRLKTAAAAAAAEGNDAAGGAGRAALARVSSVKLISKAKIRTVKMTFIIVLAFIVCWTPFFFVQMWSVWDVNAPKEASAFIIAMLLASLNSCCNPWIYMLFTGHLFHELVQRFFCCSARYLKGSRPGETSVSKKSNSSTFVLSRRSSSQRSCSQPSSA
Experimental: Female Sprague-Dawley rats weighing approximately 200-250 g are injected intramuscularly (i.m.) with 0.3 mg/kg of body weight of diethylstilbestrol (DES). The rats are sacrificed 18 hours later under pentobarbital anesthesia. The uteri are dissected out, cleaned of fat and connective tissues and rinsed in 50 ml of normal saline. The tissue pooled from six rats is homogenized in 50 ml of 0.01 mM Tris.HCl, containing 0.5 mM dithiothreitol and 1.0 mM EDTA, adjusted to pH 7.4, using a polytron at setting 6 with three passes of 10 sec each. The homogenate is passed through two (2) layers of cheesecloth and the filtrate centrifuged at 1000×g for 10 min. The clear supernatant is removed and recentrifuged at 165,000×g for 30 min. The resulting pellet containing the oxytocin receptors is resuspended in 50.0 mM Tris.HCl containing 5.0 mM MgCl2 at pH 7.4, to give a protein concentration of 2.5 mg/ml of tissue suspension. This preparation is used in subsequent binding assays with [^3 H]Oxytocin.
Binding of 3,5-[^3 H]Oxytocin ([^3 H]OT) to its receptors is done in microtiter plates using [^3 H]OT, at various concentrations, in an assay buffer of 50.0 mM Tris.HCl, pH 7.4 and containing 5.0 mM MgCl2, and a mixture of protease inhibitors: BSA, 0.1 mg; aprotinin, 1.0 mg; 1,10-phenanthroline, 2.0 mg; trypsin, 10.0 mg; and PMSF, 0.3 mg per 100 ml of buffer solution. Non-specific binding is determined in the presence of 1.0 uM unlabeled OT. The binding reaction is terminated after 60 min., at 220° C., by rapid filtration through glass fiber filters using a Brandel® cell harvester (Bio-medical Research and Development Laboratories, Inc., Gaithersburg, Md.). Competition experiments are conducted at equilibrium using 1.0 nM [^3 H]OT and varying the concentration of the displacing agents. The concentrations of agent displacing 50% of [^3 H]OT at its sites (IC50) are calculated by a computer assisted LUNDON-2 program (LUNDON SOFTWARE INC., Ohio, USA).

Chain of Rat Hepatic V1 Receptors (P30560 whole entry): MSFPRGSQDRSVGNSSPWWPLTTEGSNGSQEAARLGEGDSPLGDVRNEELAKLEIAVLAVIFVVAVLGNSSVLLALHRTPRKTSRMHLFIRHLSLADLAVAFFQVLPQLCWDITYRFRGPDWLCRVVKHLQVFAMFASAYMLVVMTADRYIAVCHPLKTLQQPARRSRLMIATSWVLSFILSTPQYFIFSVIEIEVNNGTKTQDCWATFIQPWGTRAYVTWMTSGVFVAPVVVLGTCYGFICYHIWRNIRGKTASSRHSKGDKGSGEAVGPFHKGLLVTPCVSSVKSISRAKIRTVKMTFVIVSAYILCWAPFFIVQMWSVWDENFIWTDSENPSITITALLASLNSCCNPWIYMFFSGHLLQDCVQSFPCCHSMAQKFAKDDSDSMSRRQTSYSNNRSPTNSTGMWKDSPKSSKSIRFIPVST
T1 sequence (Q00788 whole entry): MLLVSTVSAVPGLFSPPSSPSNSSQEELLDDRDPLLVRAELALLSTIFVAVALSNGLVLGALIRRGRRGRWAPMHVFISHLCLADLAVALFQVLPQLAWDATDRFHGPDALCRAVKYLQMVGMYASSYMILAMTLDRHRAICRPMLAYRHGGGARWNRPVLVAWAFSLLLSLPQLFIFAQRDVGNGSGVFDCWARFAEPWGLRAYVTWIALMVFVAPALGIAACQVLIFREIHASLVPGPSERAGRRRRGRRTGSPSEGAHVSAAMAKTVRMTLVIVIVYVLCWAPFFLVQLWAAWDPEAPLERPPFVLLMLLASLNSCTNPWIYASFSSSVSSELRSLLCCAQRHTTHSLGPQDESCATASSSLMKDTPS

Compound	IC50 [1] [nM]	IC50 [2] [nM]	inhibition at 1 µM [3] [%]	IC50 [3] [nM]	inhibition at 10 µM [3] [%]	inhibition at 2.5 µM ([3]; dose 2.5 μM) [%]
O=C(Nc1ccc(C(=O)N2Cc3cccn3Cc3ccccc32)cn1)c1ccccc1Cl [Example 6]	11	1.8	90	140		
O=C(Nc1ccc(C(=O)N2Cc3cccn3Cc3ccccc32)cn1)c1ccccc1Br [Example 8]	7	1.6	89	150		
Cc1ccccc1C(=O)Nc1ncc(C(=O)N2Cc3cccn3Cc3ccccc32)cc1Br [Example 12]	210	24		800	98	
O=C(Nc1ccc(C(=O)N2Cc3cccn3Cc3ccccc32)cn1)c1ccc([N+](=O)[O-])cc1Cl [Example 33]	450	30		510	95	
Cc1ccc(F)cc1C(=O)Nc1ccc(C(=O)N2Cc3ccnn3Cc3ccccc32)cn1 [Example 208, N-[5-(4H-Pyrazolo[5,1-c][1,4]benzodiazepin-5(10H)-ylcarbonyl)-2-pyridinyl]-5-fluoro-2-methylbenzamide]	87	11		730	95	
O=C(Nc1ccc(C(=O)N2Cc3ccnn3Cc3ccccc32)cn1)c1ccccc1-c1ccccc1 [Example 245]	19	1				
O=C(c1ccc(NCC2CCCCC2)nc1)N1Cc2cccn2Cc2ccccc21 [Example 263]	200	360		380	98	
O=C(c1ccc(NCc2ccccc2)nc1)N1Cc2cccn2Cc2ccccc21 [Example 273, 10[[6-[(Phenylmethyl)amino]-3-pyridinyl]carbonyl]-10,11-dihydro-5H-pyrrolo[2,1-c][1,4]benzodiazepine]	190	82		56		95
O=C(Nc1ccc(C(=O)N2Cc3cccn3Cc3ccccc32)c(Cl)c1)c1ccccc1-c1ccccc1 [Example 319, N-[4-(5H-Pyrrolo[2,1-c][1,4]benzodiazepin-10(11H)-ylcarbonyl)-3-chlorophenyl][1,1'-biphenyl]-2-carboxamide]	16	1.5				
O=C(Nc1ccc(C(=O)N2Cc3cccn3Cc3ccccc32)cc1)c1ccccc1-c1ccccc1 [Example 320, N-[4-(5H-Pyrrolo[2,1-c][1,4]benzodiazepin-10(11H)-ylcarbonyl)phenyl][1,1'-biphenyl]-2-carboxamide]	3.4	2.6				
O=C(Nc1ccc(C(=O)N2Cc3cccn3Cc3ccccc32)cc1)c1ccccc1Cc1ccccc1 [Example 321, N-[4-(5H-Pyrrolo[2,1-c][1,4]benzodiazepine-10(11H)-ylcarbonyl)phenyl]-2-(phenylmethyl)benzamide]	18	5.1				
O=C(Nc1ccc(C(=O)N2Cc3cccn3Cc3ccccc32)c(Cl)c1)c1ccccc1Cc1ccccc1 [Example 322, N-[4-(5H-Pyrrolo[2,1-c][1,4]benzodiazenin-10(11H)-ylcarbonyl)-3-chlorophenyl]-2-(phenylmethyl)benzamide]	670	11				
O=C(Nc1ccc(C(=O)N2Cc3cccn3Cc3ccccc32)cc1)c1ccccc1-c1ccc(C(F)(F)F)cc1 [Example 324]	420	120	45			
Cc1ncccc1C(=O)Nc1ccc(C(=O)N2Cc3cccn3Cc3ccccc32)cc1 [Example 327, N-[4-(5H-Pyrrolo[2,1-c][1,4]benzodiazepin-10(11H)-ylcarbonyl)phenyl]-2-methylpyridine-3-carboxamide]	350	28	56			
Cc1ncccc1C(=O)Nc1ccc(C(=O)N2Cc3cccn3Cc3ccccc32)c(Cl)c1 [Example 328, N-[4-(5H-Pyrrolo[2,1-c][1,4]benzodiazepin-10(11H)-yl-carbonyl)-3-chlorophenyl]-2-methyl-pyridine-3-carboxamide]	3300	19		570	85	
Cc1ncccc1C(=O)Nc1ccc(C(=O)N2Cc3cccn3Cc3ccccc32)cn1 [Example 329, N-[5-(5H-Pyrrolo[2,1-c][1,4]benzodiazepin-10(11H)-ylcarbonyl]-2-pyridinyl]-2-methylpyridine-3-carboxamide]	310	70		190	91	
CN(C)c1ncccc1C(=O)Nc1ccc(C(=O)N2Cc3cccn3Cc3ccccc32)cc1 [Example 332, N-[4-(5H-Pyrrolo[2,1-c][1,4]benzodiazepin-10(11H)-ylcarbonyl)phenyl]-2-(dimethylamino)-pyridine-3-carboxamide Hydrochloride]	31	3.4		830		
O=C(Nc1ccc(C(=O)N2Cc3cccn3Cc3ccccc32)cc1)c1cccnc1Cl [Example 333, N-[4-(5H-Pyrrolo[2,1-c][1,4]benzodiazepin-10(11H)-ylcarbonyl)phenyl]-2-chloropyridine-3-carboxamide]	250	410		880	98	
CN1CCN(c2ncccc2C(=O)Nc2ccc(C(=O)N3Cc4cccn4Cc4ccccc43)cc2)CC1 [Example 337, N-[4-(5H-pyrrolo[2,1-c][1,4]benzodiazepin-10(11H)-ylcarbonyl)phenyl]-2-(4-methyl-1-piperazinyl)-pyridine-3-carboxamide]	1300	650	16			
CN(C)c1ncccc1C(=O)Nc1ccc(C(=O)N2Cc3cccn3Cc3ccccc32)cc1 [Example 338, N-[4-(5H-Pyrrolo[2,1-c][1,4]benzodiazepin-10(11H)-ylcarbonyl)phenyl]-2-(dimethylamino)-pyridine-3-carboxamide]	37	4.8		720	98	
O=C(Nc1ccc(C(=O)N2Cc3cccn3Cc3ccccc32)cc1)c1ccccc1-c1ccccn1 [Example 341, N-[4-(5H-Pyrrolo[2,1-c][1,4]benzodiazepin-10(11H)-ylcarbonyl)phenyl]-2-(2-pyridinyl)benzamide]	20	4	74			
